# Experimental data reported in ChEMBL document CHEMBL1201862, “PubChem BioAssay data set” (2004).
#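 Tested at 5 concentrations; 48 h exposure; 96-well plates; endpoints linearly interpolated, else capped at highest concentration. GI50 = concentration required for 50% inhibition of growth.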 Activity calls are given as the source filed them. No stated cut-off is given here; in the data, active = GI50 up to about 1.1 µM and inactive = higher.
# How the values were obtained:
# Test in all cases: NCI tumour cell line growth inhibition, 48 h
# [1] = system: A549
# [2] = system: ACHN
# [3] = system: CAKI-1
# [4] = system: DLD-1
# [5] = system: DMS-114
# [6] = system: HOP-18
# [7] = system: HOP-92
# [8] = system: K562
# [9] = system: KM-20L2
# [10] = system: LXFL 529
# [11] = system: OVCAR-4
# [12] = system: OVCAR-5
# [13] = system: SK-MEL-2
# [14] = system: SNB-78
# [15] = system: SR
Compound,GI50 [1],GI50 [2],GI50 [3],GI50 [4],GI50 [5],GI50 [6],GI50 [7],GI50 [8],GI50 [9],GI50 [10],GI50 [11],GI50 [12],GI50 [13],GI50 [14],GI50 [15]
COC(=O)c1cc2c(s1)C(=O)c1ccccc1-2,> 100 µM (inactive),> 100 µM (inactive),> 100 µM (inactive),> 100 µM (inactive),> 100 µM (inactive),> 100 µM (inactive),> 100 µM (inactive),> 100 µM (inactive),> 100 µM (inactive),> 100 µM (inactive),> 100 µM (inactive),> 100 µM (inactive),> 100 µM (inactive),> 100 µM (inactive),–
O=c1c2ccccc2nc(-c2ccc(Br)cc2)n1NC1OC(CO)C(O)C(O)C1O (stereo unspecified),> 100 µM (inactive),> 100 µM (inactive),> 100 µM (inactive),–,96.6 µM (inactive),> 100 µM (inactive),> 100 µM (inactive),43.6 µM (inactive),> 100 µM (inactive),45.1 µM (inactive),42 µM (inactive),> 100 µM (inactive),> 100 µM (inactive),> 100 µM (inactive),–
COc1ccc2c(OC)c3ccoc3nc2c1O,> 100 µM (inactive),> 100 µM (inactive),93.3 µM (inactive),78.3 µM (inactive),> 100 µM (inactive),0.114 µM (active),–,> 100 µM (inactive),> 100 µM (inactive),> 100 µM (inactive),> 100 µM (inactive),> 100 µM (inactive),> 100 µM (inactive),> 100 µM (inactive),–
C(=C\c1csnn1)/c1cccnc1,> 100 µM (inactive),> 100 µM (inactive),–,> 100 µM (inactive),> 100 µM (inactive),> 100 µM (inactive),–,> 100 µM (inactive),> 100 µM (inactive),75.7 µM (inactive),> 100 µM (inactive),> 100 µM (inactive),> 100 µM (inactive),> 100 µM (inactive),–
CCOc1ccc(NC(=O)C(=O)CC(=O)c2c(C)[n+]([O-])c3ccccc3[n+]2[O-])cc1,> 100 µM (inactive),> 100 µM (inactive),> 100 µM (inactive),–,> 100 µM (inactive),24.9 µM (inactive),> 100 µM (inactive),> 100 µM (inactive),> 100 µM (inactive),> 100 µM (inactive),> 100 µM (inactive),> 100 µM (inactive),> 100 µM (inactive),> 100 µM (inactive),64.9 µM (inactive)
COc1ccc(/N=C\c2cc(OC)c(OC)c(OC)c2)cc1,> 100 µM (inactive),94 µM (inactive),–,> 100 µM (inactive),57.4 µM (inactive),> 100 µM (inactive),> 100 µM (inactive),33.7 µM (inactive),> 100 µM (inactive),51.6 µM (inactive),> 100 µM (inactive),> 100 µM (inactive),> 100 µM (inactive),> 100 µM (inactive),–
COc1ccc2c(c1)OCCC1=C2SCC2(C)CCN=C12 (stereo unspecified),> 100 µM (inactive),–,–,> 100 µM (inactive),92 µM (inactive),48.3 µM (inactive),–,46.2 µM (inactive),36.1 µM (inactive),> 100 µM (inactive),> 100 µM (inactive),–,–,> 100 µM (inactive),–
C[C@]12CC[C@H](OC3CCCCO3)CC1=CC[C@@H]1C2CC[C@]2(C)/C(=N/OCCC#N)CCC12 (stereo partly specified),26.8 µM (inactive),33.8 µM (inactive),45.8 µM (inactive),> 100 µM (inactive),4.76 µM (inactive),> 100 µM (inactive),21.9 µM (inactive),6.95 µM (inactive),3.78 µM (inactive),17.7 µM (inactive),18.9 µM (inactive),–,56.2 µM (inactive),21.9 µM (inactive),–
